Data reported in ChEMBL document CHEMBL1201862, “PubChem BioAssay data set” (2004).
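Tested at 5 concentrations; 48 h exposure; 96-well plates; endpoints linearly interpolated, else capped at highest concentration. The concentration for 50% growth inhibition is given as GI50.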 Calls of active or inactive are those of the source. No stated cut-off is given here; in the data, active = GI50 up to about 1.1 µM and inactive = higher.

Key:
Experiment in all cases: NCI-60 cell line screen, 48 h
OVCAR-4 = test system: OVCAR-4
DU-145 = test system: DU-145
UACC-62 = test system: UACC-62
SNB-75 = test system: SNB-75
LOX IMVI = test system: LOX IMVI
MCF7 = test system: MCF7
CCRF-CEM = test system: CCRF-CEM
RXF 393 = test system: RXF 393
OVCAR-8 = test system: OVCAR-8
K562 = test system: K562
HT-29 = test system: HT-29
SN12C = test system: SN12C
NCI-H23 = test system: NCI-H23
OVCAR-5 = test system: OVCAR-5
MDA-MB-231 = test system: MDA-MB-231
EKVX = test system: EKVX
SF-268 = test system: SF-268
SF-539 = test system: SF-539
786-0 = test system: 786-0
HL-60 = test system: HL-60

`O=C(/C=C/c1ccc2c(c1)OCO2)NCCc1ccco1` was tested, and the GI50 (OVCAR-4) was > 100 µM (inactive), the GI50 (DU-145) was > 100 µM (inactive) and the GI50 (UACC-62) was 44.2 µM (inactive). For the same compound, the GI50 (SNB-75) was > 100 µM (inactive), the GI50 (LOX IMVI) was 78.5 µM (inactive) and the GI50 (MCF7) was 49.4 µM (inactive). The GI50 (CCRF-CEM) was 59.8 µM (inactive), the GI50 (RXF 393) was > 100 µM (inactive) and the GI50 (OVCAR-8) was > 100 µM (inactive). The GI50 (K562) was 39.7 µM (inactive), the GI50 (HT-29) was > 100 µM (inactive) and the GI50 (SN12C) was > 100 µM (inactive). The GI50 (NCI-H23) was > 100 µM (inactive), the GI50 (OVCAR-5) was > 100 µM (inactive) and the GI50 (MDA-MB-231) was 44.8 µM (inactive). The GI50 (EKVX) was 73.3 µM (inactive), the GI50 (SF-268) was > 100 µM (inactive) and the GI50 (SF-539) was > 100 µM (inactive).
In the case of `Cc1cc(N(CCC#N)CCC#N)ccc1/C=C(\NC(=O)/C=C/c1ccccc1)NC(=O)Nc1ccccc1C`, the GI50 (OVCAR-4) is reported as 26.8 µM (inactive), the GI50 (UACC-62) is reported as 46.1 µM (inactive) and the GI50 (LOX IMVI) is reported as 63.4 µM (inactive). For the same compound, the GI50 (CCRF-CEM) was > 100 µM (inactive), the GI50 (786-0) was 26.8 µM (inactive) and the GI50 (RXF 393) was 17.2 µM (inactive). For the same compound, the GI50 (OVCAR-8) was 30.2 µM (inactive), the GI50 (K562) was > 100 µM (inactive) and the GI50 (HT-29) was > 100 µM (inactive). The GI50 (HL-60) was > 100 µM (inactive), the GI50 (SN12C) was 77.3 µM (inactive) and the GI50 (NCI-H23) was 58.7 µM (inactive). The GI50 (OVCAR-5) was > 100 µM (inactive), the GI50 (EKVX) was 86.1 µM (inactive) and the GI50 (SF-268) was 24.7 µM (inactive). For the same compound, the GI50 (SF-539) was 38.1 µM (inactive).
In the case of `CC1=C(Oc2ccccc2)C(CCC(=O)O)c2c(O)cc(Cl)c(O)c21` (configuration not stated), the GI50 (OVCAR-4) is reported as > 100 µM (inactive), the GI50 (LOX IMVI) is reported as > 100 µM (inactive) and the GI50 (CCRF-CEM) is reported as > 100 µM (inactive). The GI50 (786-0) was > 100 µM (inactive), the GI50 (RXF 393) was > 100 µM (inactive) and the GI50 (OVCAR-8) was > 100 µM (inactive). The GI50 (K562) was > 100 µM (inactive), the GI50 (HL-60) was > 100 µM (inactive) and the GI50 (SN12C) was > 100 µM (inactive). For the same compound, the GI50 (NCI-H23) was > 100 µM (inactive), the GI50 (EKVX) was 71.9 µM (inactive) and the GI50 (SF-268) was > 100 µM (inactive). For the same compound, the GI50 (SF-539) was > 100 µM (inactive).
For `CS(=O)(=O)OCC(CCl)(CCl)CCl`, the GI50 (OVCAR-4) was > 100 µM (inactive), the GI50 (DU-145) was > 100 µM (inactive) and the GI50 (SNB-75) was > 100 µM (inactive). The GI50 (LOX IMVI) was > 100 µM (inactive), the GI50 (MCF7) was > 100 µM (inactive) and the GI50 (CCRF-CEM) was > 100 µM (inactive). The GI50 (RXF 393) was > 100 µM (inactive), the GI50 (OVCAR-8) was > 100 µM (inactive) and the GI50 (K562) was > 100 µM (inactive). For the same compound, the GI50 (HT-29) was > 100 µM (inactive), the GI50 (SN12C) was > 100 µM (inactive) and the GI50 (NCI-H23) was > 100 µM (inactive). The GI50 (MDA-MB-231) was > 100 µM (inactive) and the GI50 (SF-268) was > 100 µM (inactive).
`O=C(Cc1ccccc1)NN1C(=O)C(Cl)C1c1ccccc1` (configuration not stated) was tested, and the GI50 (OVCAR-4) was 39.1 µM (inactive), the GI50 (UACC-62) was 77.4 µM (inactive) and the GI50 (SNB-75) was 55.7 µM (inactive). The GI50 (CCRF-CEM) was 18.6 µM (inactive), the GI50 (786-0) was > 100 µM (inactive) and the GI50 (RXF 393) was 77.6 µM (inactive). The GI50 (OVCAR-8) was 79.3 µM (inactive), the GI50 (K562) was 37.9 µM (inactive) and the GI50 (HT-29) was > 100 µM (inactive). The GI50 (HL-60) was 27.6 µM (inactive), the GI50 (SN12C) was 35.9 µM (inactive) and the GI50 (NCI-H23) was 61.7 µM (inactive). For the same compound, the GI50 (OVCAR-5) was > 100 µM (inactive), the GI50 (EKVX) was > 100 µM (inactive) and the GI50 (SF-268) was > 100 µM (inactive).
With `O=C(O)CCC(=O)N1c2ccccc2CC1c1c[nH]c2ccccc12` (configuration not stated) the GI50 (OVCAR-4) was > 100 µM (inactive), the GI50 (UACC-62) was > 100 µM (inactive) and the GI50 (SNB-75) was > 100 µM (inactive). For the same compound, the GI50 (LOX IMVI) was > 100 µM (inactive), the GI50 (CCRF-CEM) was > 100 µM (inactive) and the GI50 (786-0) was > 100 µM (inactive). For the same compound, the GI50 (RXF 393) was > 100 µM (inactive), the GI50 (OVCAR-8) was > 100 µM (inactive) and the GI50 (K562) was > 100 µM (inactive). The GI50 (HT-29) was > 100 µM (inactive), the GI50 (HL-60) was > 100 µM (inactive) and the GI50 (SN12C) was > 100 µM (inactive). For the same compound, the GI50 (NCI-H23) was > 100 µM (inactive), the GI50 (OVCAR-5) was > 100 µM (inactive) and the GI50 (EKVX) was > 100 µM (inactive). The GI50 (SF-268) was > 100 µM (inactive) and the GI50 (SF-539) was > 100 µM (inactive).
For `Cc1cc(C)c(/C=C(\C(=C/c2c(C)cc(C)cc2C)[N+](=O)[O-])[N+](=O)[O-])c(C)c1`, the GI50 (OVCAR-4) was > 100 µM (inactive), the GI50 (DU-145) was > 100 µM (inactive) and the GI50 (UACC-62) was > 100 µM (inactive). The GI50 (SNB-75) was > 100 µM (inactive), the GI50 (LOX IMVI) was 43.4 µM (inactive) and the GI50 (MCF7) was 58.9 µM (inactive). The GI50 (CCRF-CEM) was 41.6 µM (inactive), the GI50 (RXF 393) was 20.6 µM (inactive) and the GI50 (K562) was > 100 µM (inactive). The GI50 (HT-29) was > 100 µM (inactive), the GI50 (SN12C) was > 100 µM (inactive) and the GI50 (NCI-H23) was > 100 µM (inactive). For the same compound, the GI50 (OVCAR-5) was > 100 µM (inactive), the GI50 (MDA-MB-231) was > 100 µM (inactive) and the GI50 (EKVX) was > 100 µM (inactive). The GI50 (SF-539) was > 100 µM (inactive).
With `Cc1c2ccccc2nc2[nH]c3ccncc3c12` the GI50 (OVCAR-4) was 45.6 µM (inactive), the GI50 (DU-145) was 34.5 µM (inactive) and the GI50 (UACC-62) was 25.4 µM (inactive). For the same compound, the GI50 (SNB-75) was 86.3 µM (inactive), the GI50 (LOX IMVI) was 20.6 µM (inactive) and the GI50 (CCRF-CEM) was 0.957 µM (active). The GI50 (786-0) was 16.3 µM (inactive), the GI50 (OVCAR-8) was 31.3 µM (inactive) and the GI50 (K562) was 51.5 µM (inactive). The GI50 (HT-29) was 28.2 µM (inactive), the GI50 (HL-60) was 26.9 µM (inactive) and the GI50 (SN12C) was 13.1 µM (inactive). For the same compound, the GI50 (NCI-H23) was 33 µM (inactive), the GI50 (OVCAR-5) was 35.3 µM (inactive) and the GI50 (MDA-MB-231) was 78.5 µM (inactive). The GI50 (EKVX) was 13.9 µM (inactive), the GI50 (SF-268) was 11.1 µM (inactive) and the GI50 (SF-539) was 36.8 µM (inactive).
For `CCCCCCCCCCCCCCCCNCCCN(C)CCCN`, the GI50 (OVCAR-4) was 18.8 µM (inactive), the GI50 (UACC-62) was 17.3 µM (inactive) and the GI50 (SNB-75) was 18.2 µM (inactive). For the same compound, the GI50 (LOX IMVI) was 19.9 µM (inactive), the GI50 (786-0) was 15.2 µM (inactive) and the GI50 (OVCAR-8) was 20.7 µM (inactive). For the same compound, the GI50 (K562) was 20 µM (inactive), the GI50 (HT-29) was 19.3 µM (inactive) and the GI50 (HL-60) was 18.6 µM (inactive). The GI50 (SN12C) was 20 µM (inactive), the GI50 (NCI-H23) was 18.9 µM (inactive) and the GI50 (OVCAR-5) was 16.4 µM (inactive). For the same compound, the GI50 (EKVX) was 20.5 µM (inactive), the GI50 (SF-268) was 18.7 µM (inactive) and the GI50 (SF-539) was 17.8 µM (inactive).
